From patent publication US8853424B2 (Japan Science and Technology Agency, priority 2008, dated 2014)

Experiments:
[1] = tested on: transglutaminase (TGase); assay: Measurement of TG (TGase inhibitory activity, monodansyl cadaverine / N,N-dimethylcasein fluorescence, FDSS 3000); format: biochemical
Outline: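 Compound (1 μL of 10 mM stock) added to 0.1 mL reaction: 100 mM HEPES-NaOH pH 7.5, 1 mM CaCl2, 20 μM monodansyl cadaverine, 0.05 mg/mL N,N-dimethylcasein, 5 μg/mL TGase. Rate of fluorescence change at 340 nm measured; DMSO control set to 100; TG50 is the concentration halving activity.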

[2] = tested on: Truncated N-terminal huntington 150 Q-EGFP-Neuron 2a cells; assay: Measurement of x-Fold (polyglutamine aggregation inhibitory activity); format: cell-based
Experimental: In the present invention, the polyglutamine aggregation inhibitory activity (x-Fold) can be measured, for example, by the method described in the Example.
The number of the aggregated cells, and the total number of cells were counted by Array Scan V T1 (manufactured by Cellomics, Pittuburg, USA), and the ratio of the aggregated cells to the total number of cells was determined (x-Fold). […]

[3] = TGase activity with compound (10 mM, 1 μL in 0.1 ml enzyme reaction solution), DMSO control taken as 100
[4] = TGase inhibitory activity value, Table 1
[5] = polyglutamine aggregation inhibitory activity, Table 1
[6] = ratio of aggregated cells to total number of cells, compound 20 μM, 20 hr, almost 1 without compound, smaller = stronger inhibition
[7] = TGase inhibitory activity measurement, unit not given
[8] = polyglutamine aggregation, Truncated N-terminal huntington 150 Q-EGFP-Neuron 2a cells

Row | SMILES | TGase activity remaining (% of DMSO control = 100) [1, 3] | TGase activity remaining (% of DMSO control = 100) [1, 4] | x-Fold [2, 5] | x-Fold [2, 6] | further results
1 | NCCOB(c1ccccc1)c1ccc(COCCOc2ccc(B(OCCN)c3ccccc3)cc2)cc1 [Example 380, (4-(phenylaminoethoxyboryl)phenoxyethyl)(4-(phenylaminoethoxyboryl)benzyl)ether] | 92 | 92 | 0.67 | 0.67 | –
2 | NCCCCC(N)C(=O)OB(c1ccccc1)c1ccc(Oc2ccc(B(OC(=O)C(N)CCCCN)c3ccccc3)cc2)cc1 (stereo not drawn) [Example 437, bis(4,4′-(phenyl-lysineboryl)phenyl)ether] | 119 | – | – | 0.85 | TGase activity remaining (% of DMSO control = 100) [1, 7]: 119; x-Fold [2, 8]: 0.85
3 | NC(=O)CCC(N)C(=O)OB(c1ccccc1)c1ccccc1 (stereo not drawn) [Example 276, diphenyl(glutaminate-O,N)borane] | 105 | – | – | 0.8 | TGase activity remaining (% of DMSO control = 100) ([1]; TGase inhibitory activity value, Table 1, listed as 854): 105; x-Fold ([2]; polyglutamine aggregation inhibitory activity, Table 1, listed as 854): 0.8
4 | CSCCC(N)C(=O)OB(c1ccccc1)c1ccccc1 (stereo not drawn) [Example 194, diphenyl(methionate-O,N)borane] | 106 | 106 | 1.03 | 1.03 | –
5 | OB(c1ccsc1)c1ccc2sc3ccc(B(O)c4ccsc4)cc3c2c1 [Example 406, 2,8-di(3-thiophenylhydroxyboryl)dibenzothiophene] | 61 | – | – | 0.85 | TGase activity remaining (% of DMSO control = 100) [1, 7]: 61; x-Fold [2, 8]: 0.85
6 | c1cc(B(OCC2CCCN2)c2ccc3sc4ccc(B(OCC5CCCN5)c5ccsc5)cc4c3c2)cs1 (stereo not drawn) [Example 389, 2,8-di(3-thiophenyl-2-pyrrolidinomethoxyboryl)dibenzothiophene] | 81 | 81 | 0.83 | 0.83 | –
7 | COc1ccc(B(OC(=O)C(N)CCN)c2ccc(COCc3ccc(B(OC(=O)C(N)CCN)c4ccc(OC)cc4)cc3)cc2)cc1 (stereo not drawn) [Example 415, bis(4,4′-(p-methoxyphenyl-2,4-diaminobutyric acid boryl)benzyl)ether] | 130 | – | – | 0.90 | TGase activity remaining (% of DMSO control = 100) [1, 7]: 130; x-Fold [2, 8]: 0.90
8 | NCC(N)C(=O)OB(c1ccccc1)c1ccccc1 (stereo not drawn) [Example 174, diphenyl(2,3-diaminopropionate-O,N)borane] | 103 | – | – | 0.99 | TGase activity remaining (% of DMSO control = 100) ([1]; TGase inhibitory activity value, Table 1, listed as 2031-4): 103; x-Fold ([2]; polyglutamine aggregation inhibitory activity, Table 1, listed as 2031-4): 0.99
9 | CCN(CC)CC.CN(C)c1ccc2c(-c3ccc(NC(=S)NCC(N)C(=O)OB(c4ccccc4)c4ccccc4)cc3C(=O)[O-])c3ccc(=[N+](C)C)cc-3oc2c1 (stereo not drawn) [Example 175, diphenyl(tetramethylrhodamine 2,3-diaminopropionate-O,N)borane] | 5 | 5 | 0.89 | 0.89 | –
10 | OB(c1ccc(COCCOc2ccc(B(O)c3cccs3)cc2)cc1)c1cccs1 [Example 296, (4-(2-thiophenehydroxyboryl)phenoxyethyl)(4′-(2-thiophenehydroxyboryl)benzyl)ether] | 97 | 97 | 0.74 | 0.74 | –
11 | c1ccc(B(OC(c2ccccc2)c2ccccn2)c2ccccc2COCc2ccccc2B(OC(c2ccccc2)c2ccccn2)c2ccccc2)cc1 (stereo not drawn) [Example 133, (2-pyridyl-phenylmethoxyphenylboryl 2-benzyl)ether] | 106 | 106 | 1.00 | 1.00 | –
12 | NC(=O)CC(N)C(=O)OB(c1ccccc1)c1ccc(Oc2ccc(B(OC(=O)C(N)CC(N)=O)c3ccccc3)cc2)cc1 (stereo not drawn) [Example 390, bis(4,4′-(phenyl-asparagineboryl)phenyl)ether] | 56 | – | – | 0.59 | –
13 | c1ccc(B(OB(c2ccccc2)c2ccccc2)c2ccccc2)cc1 [Example 217, diphenylborinic acid anhydride] | 118 | 118 | 0.94 | 0.94 | –

More lines, main results first:

Row | TGase activity remaining (% of DMSO control = 100) [1, 3] | TGase activity remaining (% of DMSO control = 100) [1, 4] | SMILES | x-Fold [2, 5] | x-Fold [2, 6] | further results
14 | 82 | 82 | NCC(OB(c1ccc(F)c(F)c1)c1ccc(F)c(F)c1)c1ccccc1 (stereo not drawn) [Example 88, 2-amino-1-phenylethyl bis(3,4-difluorophenyl)borinate] | 0.83 | 0.83 | –
15 | 88 | 88 | Cc1ccc(Cl)cc1B(OC(=O)C(N)CCCNC(N)=O)c1cc(Cl)ccc1C (stereo not drawn) [Example 160, di(3-chloro-6-methyl-phenyl)(citrullinate-O,N)borane] | 1.02 | 1.02 | –
16 | 91 | 91 | Cc1cc(B(OCCN)c2ccccc2)ccc1B(OCCN)c1ccccc1 [Example 146, 1,4-bis(phenyl-2-aminoethoxyboryl) 2-methylbenzene] | 1.02 | 1.02 | –
17 | 97 | 97 | OB(c1ccc(COCc2ccc(B(O)c3ccc(F)c(F)c3)cc2)cc1)c1ccc(F)c(F)c1 [Example 352, bis(4-(3,4-difluorophenylhydroxyboryl)benzyl)ether] | 1.02 | 1.02 | –
18 | 94 | – | CCCCNCCOB(c1cc(Cl)ccc1C)c1cc(Cl)ccc1C [Example 246, di(5-chloro-2-methylphenyl) 2-butylaminoethylborinate] | – | 0.67 | –
19 | 97 | 97 | CN(C)CCOB(c1ccccc1)c1cccc2ccccc12 [Example 203, phenyl naphthyl dimethylaminoethylborinate] | 0.97 | 0.97 | –
20 | 94 | – | OB(c1ccc(Cl)c(F)c1)c1ccc(Cl)c(F)c1 [Example 231, di(3-fluoro-4-chlorophenyl)borinic acid] | – | 1.01 | TGase activity remaining (% of DMSO control = 100) ([1]; TGase inhibitory activity value, Table 1, listed as 4140): 94; x-Fold ([2]; polyglutamine aggregation inhibitory activity, Table 1, listed as 4140): 1.01
21 | 110 | – | CCCCC(N)C(=O)OB(c1ccc(C)c(Cl)c1)c1ccc(C)c(Cl)c1 (stereo not drawn) [Example 227, di(3-chloro-4-methylphenyl)(norloysinate-O,N)borane] | – | 0.99 | TGase activity remaining (% of DMSO control = 100) ([1]; TGase inhibitory activity value, Table 1, listed as 4130): 110; x-Fold ([2]; polyglutamine aggregation inhibitory activity, Table 1, listed as 4130): 0.99
22 | 97 | 97 | CCCCC(N)C(=O)OB(c1ccccc1)c1ccccc1 (stereo not drawn) [Example 226, diphenyl(2-aminohexanecarboxylate-O,N)borane] | 0.94 | 0.94 | –
23 | 116 | – | CN(C)CCOB(c1ccccc1)c1ccc(Oc2ccc(B(OCCN(C)C)c3ccccc3)cc2)cc1 [Example 385, bis(4,4′-(phenyl-N,N-dimethylaminoethoxyboryl)phenyl)ether] | 1.07 | 0.78 | –
